Experimental data published in US9435786B2, “Method for determining differentiation level of pluripotent stem cells” (HAMAMATSU PHOTONICS K.K., priority 2012, dated 2016).

Assays:
Format in all cases: cell-based
[1] = system: 253G1 iPS cell line derived from a human adult fibroblast; assay: Flatness per ROI as standard deviation of height standardized with mean height (Example 2); settings: ROI unit, 12.5 μM retinoic acid
Procedure: (§1) Onto an antireflectively coated glass bottom dish with 35 mm diameter, a 253G1 iPS cell line derived from a human adult fibroblast was seeded at 10 to 20 colonies/dish and cultured on feeder using a Primate ES Medium (manufactured by ReproCELL Incorporated, a commercial name: RCHEMD001) containing 4 ng/mL human basic FGF in the final concentration. The size of one colony was around 200 μn. As the feeder cells, mouse lung fibroblasts were used. The cells were cultured until the third day after the seeding. The medium was replaced once a day.
A sample of the iPS cells for differentiation, the medium of which was replaced with a Primate ES Medium containing 4 ng/mL human basic FGF and 12.5 μM retinoic acid in the final concentration on the second day after the seeding, was cultured for another 4 days. Retinoic acid is generally used as a reagent for inducing differentiation. In addition, for a control of differentiated cells, MCF7 cells were used which were human breast cancer-derived epithelial cells. The MCF7 cells were seeded at 20% cell density and cultured for 3 days to be approximately confluent using 10% FBS-containing DMEM medium. In each culture system except the MCF7 cell culture system, the medium was replaced once a day.
As to 3 colonies of the undifferentiated iPS cells and 3 colonies of the iPS cells cultured by supplementing retinoic acid, 7 to 15 visual fields around the center of each colony were analyzed. Each visual field was partitioned into six ROIs, and the bottom surfaces and surface shapes of the cells were extracted for each ROI unit to measure the height of the surface of the cells under the same condition as that of Example 1. The size of the ROI was […]×23 μm. The flatness was calculated as a standard deviation of height of the surface of the cells which was standardized with a mean value of height of the surface of the cells, and a statistical processing was done to perform Student's t-test.

[2] = system: 253G1 iPS cell line derived from a human adult fibroblast; assay: Slope of variogram as flatness, per ROI (Example 4); settings: Δr 5 μm to 15 μm, ROI unit
Excerpt: The flatness may also be a slope of a variogram in a horizontal distance between the predetermined two points. In this case, as the numerical value is smaller, the cell is flatter and less differentiated, and as the numerical value is larger, the cell is less flat and is more differentiated. The horizontal distance between the predetermined two points is not limited in particular, as long as the distance is between points enough to definitely determine the difference between undifferentiated pluripotent stem cell and differentiated cell. The relationship between a mean square height difference and a slope of a variogram can be represented by formula (III). MSHD(Δr)∝Δr^S (III)
wherein S is a slope of a graph which represents a variogram in a double logarithmic manner. It should be noted that because of the nature of a log-log graph, even when constantly multiplying the abscissa Δr or ordinate MSHD through the standardization, the graph is only translated parallelly and the slope S is constant with respect to the constantly multiplied abscissa and ordinate. In addition, as shown in the above-mentioned document of Glenn, N. et al., it is a known mathematical approach to represent a variogram by log-log graph and evaluate the statistical nature of the surface shape by slope S.
Under the same condition as that of Example 3, a variogram analysis was performed using a value of MSHD which was standardized with a mean value of height of the surface of the cells, and a slope of the variogram when the Δr was within a range of 5 μm to 15 μm was calculated as the flatness, using formula (III) as described above. Then, a statistical analysis was done to perform Student's t-test.

[3] = system: 253G1 iPS cell line derived from a human adult fibroblast; assay: Variogram analysis, MSHD standardized with mean height, per ROI (Example 3); settings: Δr 15 μm, ROI unit
Excerpt: The flatness may also be a value of MSHD in a predetermined horizontal distance. When a surface shape Z (x, y) is given and two points, A (x1, y1) and B (x2, y2), which are apart from each other at a Δr in the horizontal direction on the Z, are selected, the MSHD can be represented by formula (I). MSHD(Δr)=<(z(x1,y1)−z(x2,y2))^2> (I)
wherein z (x1, y1) is a height of a surface of the cell at A, z (x2, y2) is a height of a surface of the cell at B, and < > is an ensemble average. In addition, (x1, y1) and (x2, y2) are in any combination that satisfies formula (II). Δr=((x1−x2)^2+(y1−y2)^2)^1/2 (II)
Under the same condition as that of Example 2, three-dimensional data for the undifferentiated iPS cells and the iPS cells cultured by supplementing retinoic acid were obtained every 0.125 μm in the horizontal direction and every 0.32 μm in the vertical direction, and from the obtained data, tomogram images were created. From the created tomogram images, the bottom surfaces and surface shapes of the cells were extracted and a variogram analysis was performed. Specifically, a value of MSHD when the Δr was within a range of 0.25 μm to 15 μm was calculated from formula (I) as described above, and standardized with a mean value of height of the surface of the cells.
Next, a value of MSHD when the Δr was […] was calculated and standardized with a mean value of height of the surface of the cells to calculate the flatness. The result was shown as a logarithmic graph (FIG. 6). In a statistical analysis, the common logarithm of the result was calculated to perform Student's t-test (Table 3).

[4] = system: 253G1 iPS cell line derived from a human adult fibroblast; assay: Flatness of cell surface in a whole visual field, reflection quantitative phase microscope (Example 1); settings: 12.5 μM retinoic acid, cultured another 4 days
Procedure: as §1, with “day. […]” for “day.”
The shape of the cells was observed using a reflection quantitative phase microscope. […]
The bottom surface and surface shapes of the cell were extracted as follows. By using a reflection quantitative phase microscope, three-dimensional data for the cells in a 60 μm×80 μm visual field were obtained every 0.125 μm in the horizontal direction and every 0.32 μm in the vertical direction, and from the obtained data, tomogram images were created. […] From the obtained bottom surfaces and surface shapes, the height of the surface of the cells was measured. The flatness was calculated as a standard deviation of height of the surface of the cells which was standardized with a mean value of height of the surface of the cells, and a statistical processing was done.

[5] = system: 253G1 iPS cell line derived from a human adult fibroblast; assay: Flatness as MSHD per visual field unit (Example 6)
Procedure: By using images shot using each sample in Example 2 of one colony (15 visual fields) for the undifferentiated iPS cells and 2 colonies (11 and 13 visual fields, respectively) for the iPS cells cultured by supplementing retinoic acid, the height of the surface of the cells for each visual field unit was measured using a reflection quantitative phase microscope under the same condition as that of Example 2. A value of MSHD when the Δr was 5 μm was calculated and standardized with a mean value of height of the surface of the cells, then the common logarithm was taken and the flatness was calculated. A statistical analysis was done to perform Student's t-test.

Q: What does the source list for `CC1=C(/C=C/C(C)=C/C=C/C(C)=C/C(=O)O)C(C)(C)CCC1` [Retinoic acid, retinoic acid]?
A: Flatness (standard deviation of height standardized with mean height) ([1]; colony RA-1): 0.130; Flatness (standard deviation of height standardized with mean height) ([1]; colony RA-2): 0.107; Flatness (standard deviation of height standardized with mean height) ([1]; colony RA-3): 0.123; Flatness (slope of variogram) ([2]; colony RA-1): 0.848; Flatness (slope of variogram) ([2]; colony RA-2): 0.744; Flatness (slope of variogram) ([2]; colony RA-3): 0.880; Flatness (common logarithm of MSHD standardized with mean height) ([3]; colony RA-1): −1.392; Flatness (common logarithm of MSHD standardized with mean height) ([3]; colony RA-2): −1.517; Flatness (common logarithm of MSHD standardized with mean height) ([3]; colony RA-3): −1.425; Mean value of height of the surface of the cells ([4]; 60 μm×80 μm visual field): 6.25 μm; Flatness (standard deviation of height standardized with mean height) ([4]; iPS cells, larger value = less flat): 18.9%; Flatness (common logarithm of MSHD standardized with mean height) ([5]; colony RA-1, Δr 5 μm): −1.657; Flatness (common logarithm of MSHD standardized with mean height) ([5]; colony RA-2, Δr 5 μm): −1.796
